The text below walks through data of patent publication US5439915A, “Pyrido[3,4-B]indole carboxamide derivatives as serotonergic agents” (American Home Products Corporation, priority 1994, dated 1995).

The target in this test is T1, 5-HT1A serotonin receptor (Rattus norvegicus, UniProt P19327).
T1 construct: following the procedure of Hall et al., J. Neurochem; 44 1685 (1985); from tissue
T1 sequence (P19327 1-422): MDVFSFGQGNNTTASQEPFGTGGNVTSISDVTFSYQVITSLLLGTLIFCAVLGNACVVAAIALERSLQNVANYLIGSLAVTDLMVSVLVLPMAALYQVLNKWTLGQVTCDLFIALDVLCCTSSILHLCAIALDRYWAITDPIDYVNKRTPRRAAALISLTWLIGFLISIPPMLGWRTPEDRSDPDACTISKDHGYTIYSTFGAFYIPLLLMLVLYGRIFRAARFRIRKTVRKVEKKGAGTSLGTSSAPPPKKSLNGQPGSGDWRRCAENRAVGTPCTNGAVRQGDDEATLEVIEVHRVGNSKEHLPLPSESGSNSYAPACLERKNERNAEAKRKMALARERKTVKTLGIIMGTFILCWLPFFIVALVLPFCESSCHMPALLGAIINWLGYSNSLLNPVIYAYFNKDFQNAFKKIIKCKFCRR
Briefly: displacement of [^3 H] 8-OHDPAT (dipropylaminotetralin) from the 5-HT1A serotonin receptor (Hall et al.). As to conditions: read-out: 5-HT1A Binding (IC50). How it is done: High affinity for the serotonin 5-HT1A receptor for the compounds of this invention was established by testing them in accordance with the standard pharmacological test procedure in which the compound's ability to displace [^3 H] 8-OHDPAT (dipropylaminotetralin) from the 5-HT1A serotonin receptor was determined following the procedure of Hall et al., J. Neurochem. 44 1685 (1985).
For orientation: IC50 means the point on the concentration scale where inhibition reaches its midpoint. On to `C[C@H](CN1CCc2c([nH]c3ccccc23)C1)N(C(=O)C1CCCCC1)c1ccccn1` [Example 1], for which the half-maximal inhibitory concentration (IC50) was 34.9 nM.
With `C[C@H](CN1CCc2c(n(C)c3ccccc23)C1)N(C(=O)C1CCCCC1)c1ccccn1` [Example 3], the half-maximal inhibitory concentration (IC50) was 78.1 nM.
For `C[C@H](CN1CCc2c([nH]c3ccccc23)C1)N(C(=O)C12CC3CC(CC(C3)C1)C2)c1ccccn1` [Example 2], the half-inhibitory concentration (IC50) turned out to be 32.5 nM.
